# Data from patent US5173405A, “Use of arsenite to reversibly block steroid binding to glucocorticoid receptors in the presence of other steroid receptors” (priority 1990, dated 1992).
# Assays:
# [1] = system: steroid-free glucocorticoid receptors; experiment: Reversal by thiols of arsenite inhibition of [3H]Dex binding to steroid-free receptors; conditions: receptors preincubated with 40 uM arsenite 30 min, then thiol 30 min
# Experimental: Referring to FIG. 4, steroid-free receptors in pH 8.8 TAPS buffer containing 21 mM Na2 MoO4 were preincubated with 40 uM arsenite for 30 min and then adjusted to various concentrations of DTT or β-MERC by addition of 100× solutions of each thiol in pH 8.8 TAPS buffer. After a further 30 min preincubation, the binding activity of these receptors was assayed by incubating with [^3 H]Dex±excess [^1 H]Dex for 2.5 hr. The amount of specific binding (determined as described above for FIG. 1A) of [^3 H]Dex after DTT(o) and β-MERC preincubation was expressed as a percent of the untreated control.
# (§1) The growth of HTC cells at 37° C. in spinner and monolayer cultures of Swim's S77 medium (GIBCO; Grand Island, N.Y.) supplemented with 5% fetal and 5% newborn bovine serum (both obtained from Biofluids; Rockville, Md.) and 0.03% glutamine are described in Thompson, 1979. HTC cell cytosol containing the steroid-free receptors was prepared, stored in liquid N2, and labelled as set forth in Reichman et al., Biochem., 23, 5376-5384, 1984; Simons et al., Biochem., 23, 6876-6882, 1984. […] The specifically bound [^3 H]Dex was determined by first adding a 10% dextran-coated charcoal solution (added volume=20% of reaction solution volume) to remove free steroid and then subtracting the nonspecific binding seen in the presence of excess [^1 H]Dex.
# [2] = system: 16 kDa steroid-binding core fragment of HTC cell receptors; experiment: [3H]Dex binding to trypsin-generated 16 kDa core fragment after preincubation with arsenite or MMTS; parameters: species or system rat; conditions: preincubation with arsenite 30 min or MMTS 2.5 hr
# Experimental: Referring to FIG. 6, duplicate samples of steroid-free receptors in pH 8.8 TAPS buffer containing 21 mM Na2 MoO4 were digested with trypsin (14 μg/ml for 1 hr), to generate the 16 kDa core fragment of the receptor, followed by a 10-fold (wt/wt) excess of soybean trypsin inhibitor to block further digestion. The samples were then treated with various concentrations of arsenite (for 30 min) or MMTS (for 2.5 hr) before determining the remaining [^3 H]Dex binding as described above for FIG. 1A.
# as §1
# [3] = molecular target: T1, glucocorticoid receptors (HTC cell receptors) (Rattus norvegicus, UniProt P06536); experiment: [3H]Dex binding to HTC cell cytosol receptors after preincubation with MMTS or arsenite; conditions: for inactivation of steroid-binding activity of glucocorticoid receptors: low concentrations of MMTS, very low concentrations of arsenite
# T1 sequence (P06536 1-795): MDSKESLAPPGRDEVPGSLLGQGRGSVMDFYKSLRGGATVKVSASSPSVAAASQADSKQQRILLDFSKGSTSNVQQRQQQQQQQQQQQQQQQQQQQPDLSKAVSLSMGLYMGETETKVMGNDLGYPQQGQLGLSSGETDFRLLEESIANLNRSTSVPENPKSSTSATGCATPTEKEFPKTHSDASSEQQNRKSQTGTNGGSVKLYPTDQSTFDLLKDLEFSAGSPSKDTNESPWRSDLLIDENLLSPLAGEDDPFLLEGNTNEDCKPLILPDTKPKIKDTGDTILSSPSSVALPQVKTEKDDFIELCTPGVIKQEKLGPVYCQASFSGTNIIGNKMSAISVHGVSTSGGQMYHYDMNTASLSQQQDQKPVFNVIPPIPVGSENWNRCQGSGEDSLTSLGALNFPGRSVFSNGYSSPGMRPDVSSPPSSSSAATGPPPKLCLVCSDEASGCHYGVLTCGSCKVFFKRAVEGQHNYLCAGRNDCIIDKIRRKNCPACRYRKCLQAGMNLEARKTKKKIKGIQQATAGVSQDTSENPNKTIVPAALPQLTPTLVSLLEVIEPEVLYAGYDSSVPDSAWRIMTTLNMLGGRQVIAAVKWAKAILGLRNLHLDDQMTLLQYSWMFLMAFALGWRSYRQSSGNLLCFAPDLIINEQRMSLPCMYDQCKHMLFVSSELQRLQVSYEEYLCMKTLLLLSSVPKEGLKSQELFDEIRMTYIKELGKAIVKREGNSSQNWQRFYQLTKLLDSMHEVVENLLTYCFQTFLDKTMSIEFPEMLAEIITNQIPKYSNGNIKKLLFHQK
# Experimental: Referring to FIG. 1A, duplicate samples of HTC cell (Thompson, E.B., Methods Enzymol., 58, 544-551 [1979]) cytosol solution were pretreated with various concentrations of MMTS in absolute EtOH (final concentration of ETOH=1%) for 0 hr (.smallcircle.), 0.5 hr, or 2.5 hr before the addition of [^3 H]Dex±[^1 H]Dex. After a further 2.5 hr incubation, the free steroid was removed by the addition of dextran-coatedcharcoal. The specific binding to receptors was determined as described by Miller and Simons, J. Biol. Chem., 263, 15217-15225, 1988) (see also section entitled "Cells and preparation and labelling of receptors" below) and plotted as percentage of the EtOH-pretreated control versus the concentration of MMTS. The data points shown are the average values derived from 1-5 experiments.
# Referring to FIG. 1B, duplicate samples of HTC cell cytosol solution were treated with various concentrations of MMTS for 2.5 hr before determining the remaining steroid binding activity of the receptors as described above for FIG. 1A.
# Referring to FIG. 3, steroid-free receptors containing 21 mM Na2 MoO4 were incubated with various concentrations of 100× (in pH 8.8 TAPS buffer) arsenite for 30 min. The binding activity of these receptors was then assayed by incubating with [^3 H]Dex±excess [^1 H]Dex for 2.5 hr. The amount of specific binding of [^3 H]Dex (determined as described above for FIG. 1A) after arsenite preincubation was expressed as a percent of the untreated control.
# The growth of HTC cells at 37° C. in spinner and monolayer cultures of Swim's S77 medium (GIBCO; Grand Island, N.Y.) supplemented with 5% fetal and 5% newborn bovine serum (both obtained from Biofluids; Rockville, Md.) and 0.03% glutamine are described in Thompson, 1979. […] The specifically bound [^3 H]Dex was determined by first adding a 10% dextran-coated charcoal solution (added volume=20% of reaction solution volume) to remove free steroid and then subtracting the nonspecific binding seen in the presence of excess [^1 H]Dex.
# [4] = system: human glucocorticoid receptors; experiment: [3H]steroid binding of glucocorticoid receptors in MCF-7 cell cytosol after arsenite preincubation; conditions: arsenite between 100 and 500 μM
# Experimental: (§2) Referring to FIG. 7, steroid-free receptors (glucocorticoid, estrogen, and progesterone receptors in MCF-7 cell [from NCI, NIH] cytosol in pH 7.5 HEPES buffer containing 21 mM Na2 MoO4) were treated with various concentrations of 100× (in pH 7.5 HEPES buffer) sodium arsenite for 30 min. The binding activity of these receptors was then assayed by incubating with [^3 H]steroid±[^1 H]steroid for 2.5 hr. The amount of specific binding of [^3 H]steroid (as described above for FIG. 1A) after arsenite preincubation was expressed as the percent of the untreated control for glucocorticoid estrogen (Δ), and progesterone (.smallcircle.) receptors.
# (§3) MCF-7 cells (obtained from NIH) were grown as monolayer cultures in Richter's IMEM (NIH Media Unit, NIH) (supplemented with 10% fetal bovine serum [Biofluids] and 0.03% glutamine) in an atmosphere of 5% CO2 /95% air at 37° C. Crude receptor solutions were prepared by freeze-thaw lysis (in liquid N2) of cells washed in phosphate buffered saline (Reichman et al., 1984; Simons et al., 1984). The cell lysates were treated with either […] TAPS or pH 7.5 HEPES buffer (containing 20 mM Na2 MoO4) and centrifuged at 2500×g for 10 min or 100,000×g for 60 min. […]
# [5] = system: human estrogen and progesterone receptors (other receptors); experiment: [3H]steroid binding of estrogen and progesterone receptors in MCF-7 cell cytosol after arsenite preincubation; conditions: arsenite between 100 and 500 μM
# Experimental: as §2, §3
SMILES,reversal of arsenite inhibition of steroid binding [1],inhibition of [3H]Dex binding to 16 kDa steroid-binding core fragment [2],inactivation of steroid-binding activity of glucocorticoid receptors [3],preferred MMTS concentration for blocking rat glucocorticoid receptors ([3]; rat glucocorticoid receptors),inhibition of glucocorticoid binding [4],effect on other receptors [5]
"O[C@H](CS)[C@H](O)CS (racemic) [DTT, dithiothreitol]",reversal of arsenite inhibition of steroid binding,,,,,
"CSS(C)(=O)=O [MMTS, methyl methanethiolsulfonate]",,inhibition of [^3 H]Dex binding,specifically and reversibly inactivate all of the steroid-binding activity of glucocorticoid receptors,approximately 300 μM,,
"O=[As]O [arsenite, sodium arsenite]",,inhibition of [^3 H]Dex binding,specifically and reversibly inactivate all of the steroid-binding activity of glucocorticoid receptors,,complete inhibition of glucocorticoid binding,little effect on other receptors
"OCCS [β-MERC, β-mercaptoethanol]",reversal of arsenite inhibition of steroid binding,,,,,
